# Assay results reported in ChEMBL document CHEMBL4673401 (ACS Med Chem Lett, 2021).
# Assays:
# [1] = Protein binding in dog plasma by rapid equilibrium dialysis method; format: ADME, cell-free, Canis lupus familiaris; conditions: read-out: PPB (converted)
# [2] = Oral bioavailability in Sprague-Dawley rat at 3 mg/kg measured up to 24 hrs; format: ADME, organism-based; conditions: in vivo
# [3] = AUC in C57BL/6 mouse at 3 mg/kg, po measured up to 24 hrs; format: ADME, organism-based; parameters: route oral, dose 3 mg/kg, time <=24; conditions: in vivo
# [4] = Cmax in Sprague-Dawley rat at 3 mg/kg, po measured up to 24 hrs; format: ADME, organism-based; parameters: route oral, dose 3 mg/kg, time <=24; conditions: in vivo
# Cytochrome P450 2C9 = Cytochrome P450 2C9 (Homo sapiens, UniProt P11712); assay: Inhibition of CYP2C9 in human liver microsomes using tolbutamide as substrate incubated for 10 mins in presence of NADPH by UHPLC-MS/MS analysis; format: ADME
# Cytochrome P450 1A2 = biological target: T1, Cytochrome P450 1A2 (Homo sapiens, UniProt P05177); assay: Inhibition of CYP1A2 in human liver microsomes using phenacetin as substrate incubated for 10 mins in presence of NADPH by UHPLC-MS/MS analysis; format: ADME
# T1 sequence (P05177 whole entry): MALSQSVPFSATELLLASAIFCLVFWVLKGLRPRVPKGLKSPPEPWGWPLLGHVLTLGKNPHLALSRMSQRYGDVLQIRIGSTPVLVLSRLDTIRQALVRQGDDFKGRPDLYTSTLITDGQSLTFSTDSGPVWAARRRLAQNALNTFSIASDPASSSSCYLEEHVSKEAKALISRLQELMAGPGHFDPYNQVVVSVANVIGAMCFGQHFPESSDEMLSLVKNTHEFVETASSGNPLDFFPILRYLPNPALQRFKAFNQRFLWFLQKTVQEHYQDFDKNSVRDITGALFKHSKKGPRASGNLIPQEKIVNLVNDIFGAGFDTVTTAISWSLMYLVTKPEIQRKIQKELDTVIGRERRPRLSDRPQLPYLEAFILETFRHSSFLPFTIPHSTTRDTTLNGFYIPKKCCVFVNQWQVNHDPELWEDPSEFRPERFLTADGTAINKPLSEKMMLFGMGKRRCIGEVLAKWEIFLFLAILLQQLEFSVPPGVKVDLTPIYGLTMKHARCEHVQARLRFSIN
# [5] = Half life in human liver microsomes; format: ADME, Microsome
# [6] = Half life in rat liver microsomes; format: ADME, Microsome
# [7] = Oral bioavailability in Beagle dog at 2 mg/kg measured up to 24 hrs; format: ADME, organism-based, Canis lupus familiaris; conditions: in vivo
# MC-38 = assay: Antitumor activity against mouse MC38 cells xenografted in humanized PD-1 mouse assessed as tumor growth inhibition at 100 mg/kg, po bid for 14 days in combination with PD-1 antibody at 3 mg/kg, ip qod for 8 days by digital caliper method relative to control; format: functional; conditions: MC-38, 336 h, time 14 day, read-out: TGI
# [8] = Clearance in Sprague-Dawley rat at 3 mg/kg, po measured up to 24 hrs; format: ADME, organism-based; conditions: in vivo
# Cytochrome P450 2C19 = Cytochrome P450 2C19 (Homo sapiens, UniProt P33261); assay: Inhibition of CYP2C19 in human liver microsomes using S-mephenytoin as substrate incubated for 10 mins in presence of NADPH by UHPLC-MS/MS analysis; format: ADME; conditions: read-out: INH
# [9] = Half life in C57BL/6 mouse at 3 mg/kg, po measured up to 24 hrs; format: ADME, organism-based; conditions: in vivo
# [10] = biological target: Voltage-gated inwardly rectifying potassium channel KCNH2 (Homo sapiens, UniProt Q12809); assay: Inhibition of human ERG expressed in CHO-K1 cells at -90 mV holding potential by automated patch-clamp method; format: cell-based
# Cytochrome P450 2D6 = Cytochrome P450 2D6 (Homo sapiens, UniProt P10635); assay: Inhibition of CYP2D6 in human liver microsomes using dextromethorphan as substrate incubated for 10 mins in presence of NADPH by UHPLC-MS/MS analysis; format: ADME
# [11] = Protein binding in human plasma by rapid equilibrium dialysis method; format: ADME, cell-free; conditions: read-out: PPB (converted)
# [12] = AUC in Sprague-Dawley rat at 3 mg/kg, po measured up to 24 hrs; format: ADME, organism-based; parameters: route oral, dose 3 mg/kg, time <=24; conditions: in vivo
# [13] = Protein binding in rat plasma by rapid equilibrium dialysis method; format: ADME, cell-free; conditions: read-out: PPB (converted)
# [14] = Cmax in Beagle dog at 2 mg/kg, po measured up to 24 hrs; format: ADME, organism-based, Canis lupus familiaris; parameters: route oral, dose 2 mg/kg, time <=24; conditions: in vivo
# [15] = Oral bioavailability in C57BL/6 mouse at 3 mg/kg measured up to 24 hrs; format: ADME, organism-based; conditions: in vivo
# [16] = Clearance in C57BL/6 mouse at 3 mg/kg, po measured up to 24 hrs; format: ADME, organism-based; conditions: in vivo
# [17] = Toxicity in humanized PD-1 mouse xenografted with mouse MC38 cells assessed as effect on body weight at 100 mg/kg, po bid for 14 days in combination with PD-1 antibody at 3 mg/kg, ip qod for 8 days; format: organism-based; conditions: in vivo, 336 h, time 14 day
# [18] = AUC in Beagle dog at 2 mg/kg, po measured up to 24 hrs; format: ADME, organism-based, Canis lupus familiaris; parameters: route oral, dose 2 mg/kg, time <=24; conditions: in vivo
# Cytochrome P450 3A4 = Cytochrome P450 3A4 (Homo sapiens, UniProt P08684); assay: Inhibition of CYP3A4 in human liver microsomes using midazolam as substrate incubated for 10 mins in presence of NADPH by UHPLC-MS/MS analysis; format: ADME
# [19] = Cmax in C57BL/6 mouse at 3 mg/kg, po measured up to 24 hrs; format: ADME, organism-based; parameters: route oral, dose 3 mg/kg, time <=24; conditions: in vivo
# [20] = Half life in Sprague-Dawley rat at 3 mg/kg, po measured up to 24 hrs; format: ADME, organism-based; conditions: in vivo
# [21] = Clearance in Beagle dog at 2 mg/kg, po measured up to 24 hrs; format: ADME, organism-based, Canis lupus familiaris; conditions: in vivo
# [22] = biological target: Tryptophan 2,3-dioxygenase (Homo sapiens, UniProt P48775); assay: Inhibition of human TDO expressed in Escherichia coli Rosetta using tryptophan as substrate incubated for 1 hr by methylene blue based assay
# [23] = Half life in Beagle dog at 2 mg/kg, po measured up to 24 hrs; format: ADME, organism-based, Canis lupus familiaris; conditions: in vivo
# Sequence of Cytochrome P450 2C9 (P11712 whole entry): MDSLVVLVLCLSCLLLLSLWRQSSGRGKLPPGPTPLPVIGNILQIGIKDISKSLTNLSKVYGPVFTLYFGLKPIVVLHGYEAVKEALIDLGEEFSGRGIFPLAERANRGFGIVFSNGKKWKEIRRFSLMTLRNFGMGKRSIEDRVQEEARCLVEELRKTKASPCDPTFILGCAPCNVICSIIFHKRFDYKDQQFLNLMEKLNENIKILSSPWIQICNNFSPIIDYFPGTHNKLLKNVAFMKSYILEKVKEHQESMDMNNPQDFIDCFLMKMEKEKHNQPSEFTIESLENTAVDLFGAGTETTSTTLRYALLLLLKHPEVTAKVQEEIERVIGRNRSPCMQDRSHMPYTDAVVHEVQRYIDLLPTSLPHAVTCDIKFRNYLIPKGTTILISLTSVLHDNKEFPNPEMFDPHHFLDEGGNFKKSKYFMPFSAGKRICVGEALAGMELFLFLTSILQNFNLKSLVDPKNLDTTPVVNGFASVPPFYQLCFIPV
# Sequence of Tryptophan 2,3-dioxygenase (P48775 whole entry): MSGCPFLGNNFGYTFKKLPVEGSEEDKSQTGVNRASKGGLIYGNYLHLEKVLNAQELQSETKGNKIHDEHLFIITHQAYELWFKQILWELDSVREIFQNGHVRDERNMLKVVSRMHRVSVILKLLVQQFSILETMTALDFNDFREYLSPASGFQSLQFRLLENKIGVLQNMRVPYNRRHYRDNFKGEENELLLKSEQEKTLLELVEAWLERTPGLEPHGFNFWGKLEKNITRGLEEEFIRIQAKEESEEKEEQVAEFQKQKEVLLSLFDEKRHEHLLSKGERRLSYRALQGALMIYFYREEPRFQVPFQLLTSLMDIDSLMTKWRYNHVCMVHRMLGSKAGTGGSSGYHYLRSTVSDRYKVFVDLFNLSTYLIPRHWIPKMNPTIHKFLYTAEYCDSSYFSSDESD
# Sequence of Cytochrome P450 3A4 (P08684 whole entry): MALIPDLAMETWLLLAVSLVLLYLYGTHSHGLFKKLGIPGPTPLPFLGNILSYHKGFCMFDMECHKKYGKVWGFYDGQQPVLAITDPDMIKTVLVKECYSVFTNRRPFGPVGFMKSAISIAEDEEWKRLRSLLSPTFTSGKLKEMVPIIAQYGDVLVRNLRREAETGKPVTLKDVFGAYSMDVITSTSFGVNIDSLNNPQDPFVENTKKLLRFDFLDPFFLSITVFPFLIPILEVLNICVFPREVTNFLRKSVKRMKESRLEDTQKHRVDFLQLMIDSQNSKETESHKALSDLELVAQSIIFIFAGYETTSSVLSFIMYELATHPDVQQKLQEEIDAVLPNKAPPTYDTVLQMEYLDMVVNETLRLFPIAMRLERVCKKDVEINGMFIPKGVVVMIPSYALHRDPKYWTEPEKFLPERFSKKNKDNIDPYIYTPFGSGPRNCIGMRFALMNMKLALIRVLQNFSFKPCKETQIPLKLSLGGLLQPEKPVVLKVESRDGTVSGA
# Sequence of Cytochrome P450 2C19 (P33261 whole entry): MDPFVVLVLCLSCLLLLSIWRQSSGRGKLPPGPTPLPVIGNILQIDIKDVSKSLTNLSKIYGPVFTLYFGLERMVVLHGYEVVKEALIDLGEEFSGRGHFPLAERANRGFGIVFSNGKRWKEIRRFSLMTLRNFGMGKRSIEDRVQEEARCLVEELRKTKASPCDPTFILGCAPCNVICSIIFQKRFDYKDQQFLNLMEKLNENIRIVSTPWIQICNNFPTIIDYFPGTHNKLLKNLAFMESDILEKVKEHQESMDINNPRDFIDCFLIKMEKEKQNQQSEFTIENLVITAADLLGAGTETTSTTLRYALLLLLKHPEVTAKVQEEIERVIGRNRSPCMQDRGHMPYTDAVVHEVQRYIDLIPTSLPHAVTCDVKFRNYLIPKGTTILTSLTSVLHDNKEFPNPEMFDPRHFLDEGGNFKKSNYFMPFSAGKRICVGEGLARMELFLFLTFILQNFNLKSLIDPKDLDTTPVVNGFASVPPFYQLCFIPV
# Sequence of Voltage-gated inwardly rectifying potassium channel KCNH2 (Q12809 whole entry): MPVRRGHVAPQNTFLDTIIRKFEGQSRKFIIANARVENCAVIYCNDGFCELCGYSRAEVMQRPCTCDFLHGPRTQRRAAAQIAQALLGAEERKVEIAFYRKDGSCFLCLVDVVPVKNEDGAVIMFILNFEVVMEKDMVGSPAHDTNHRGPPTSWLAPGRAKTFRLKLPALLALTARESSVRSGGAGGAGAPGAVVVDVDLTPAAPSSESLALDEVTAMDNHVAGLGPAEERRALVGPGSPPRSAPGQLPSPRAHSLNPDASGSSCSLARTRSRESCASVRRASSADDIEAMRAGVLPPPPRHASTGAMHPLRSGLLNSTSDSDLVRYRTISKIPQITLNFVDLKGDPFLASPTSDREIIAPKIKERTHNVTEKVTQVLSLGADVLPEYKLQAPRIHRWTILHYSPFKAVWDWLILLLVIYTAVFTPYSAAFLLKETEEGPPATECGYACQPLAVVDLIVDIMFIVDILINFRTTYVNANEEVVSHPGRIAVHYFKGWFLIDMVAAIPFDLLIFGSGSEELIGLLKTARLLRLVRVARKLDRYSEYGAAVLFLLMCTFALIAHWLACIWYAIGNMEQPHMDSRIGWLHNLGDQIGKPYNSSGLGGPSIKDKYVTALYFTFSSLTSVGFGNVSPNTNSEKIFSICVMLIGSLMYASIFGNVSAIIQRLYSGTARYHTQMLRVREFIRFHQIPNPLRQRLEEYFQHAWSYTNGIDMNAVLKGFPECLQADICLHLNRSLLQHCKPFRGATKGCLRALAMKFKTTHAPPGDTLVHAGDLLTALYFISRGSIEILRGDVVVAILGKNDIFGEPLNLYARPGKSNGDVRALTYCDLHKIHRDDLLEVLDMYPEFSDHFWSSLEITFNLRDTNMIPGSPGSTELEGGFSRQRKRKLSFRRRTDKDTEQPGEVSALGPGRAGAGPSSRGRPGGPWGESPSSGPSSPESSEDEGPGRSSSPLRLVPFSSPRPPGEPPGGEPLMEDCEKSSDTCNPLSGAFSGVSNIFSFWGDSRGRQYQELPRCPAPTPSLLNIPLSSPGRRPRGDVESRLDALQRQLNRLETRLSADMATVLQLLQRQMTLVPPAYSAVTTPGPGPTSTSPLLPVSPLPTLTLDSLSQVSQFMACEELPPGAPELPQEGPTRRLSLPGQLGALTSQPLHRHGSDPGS
# Sequence of Cytochrome P450 2D6 (P10635 whole entry): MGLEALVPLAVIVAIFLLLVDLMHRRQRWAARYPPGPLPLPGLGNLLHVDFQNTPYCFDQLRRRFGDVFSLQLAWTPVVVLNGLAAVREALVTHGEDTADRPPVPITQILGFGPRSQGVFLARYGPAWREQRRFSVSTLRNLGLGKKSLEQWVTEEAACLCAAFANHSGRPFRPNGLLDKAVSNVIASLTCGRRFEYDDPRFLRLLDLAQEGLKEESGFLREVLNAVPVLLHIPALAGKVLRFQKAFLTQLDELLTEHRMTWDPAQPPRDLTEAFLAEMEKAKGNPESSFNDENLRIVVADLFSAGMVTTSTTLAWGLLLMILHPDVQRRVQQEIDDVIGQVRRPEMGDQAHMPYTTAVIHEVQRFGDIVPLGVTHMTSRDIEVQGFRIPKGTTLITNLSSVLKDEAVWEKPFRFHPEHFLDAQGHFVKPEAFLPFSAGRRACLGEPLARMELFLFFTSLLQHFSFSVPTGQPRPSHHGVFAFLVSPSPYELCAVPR
compound,measurement,setting,value
NS(=O)(=O)NCCNc1nonc1C(=NO)Nc1ccc(F)c(Br)c1 [EPACADOSTAT],fraction unbound,[1],0.025
same,bioavailability,[2],55%
same,AUC at 24 h,[3],1020 ng·h/mL
same,Cmax,[4],133 ng/mL
same,INH,Cytochrome P450 2C9,> 10 µM
same,INH,Cytochrome P450 1A2,> 10 µM
same,half-life,[5],4.88 h
same,half-life,[6],1.22 h
same,bioavailability,[7],50%
same,inhibition in vivo at 100 mg/kg,MC-38,66.9%
same,clearance,[8],29 mL/min/kg
same,IC50,Cytochrome P450 2C19,> 10 µM
same,half-life,[9],2.41 h
same,INH,[10],> 30 µM
same,INH,Cytochrome P450 2D6,> 10 µM
same,fraction unbound,[11],0.015
same,AUC at 24 h,[12],807 ng·h/mL
same,fraction unbound,[13],0.03
same,Cmax,[14],245 ng/mL
same,bioavailability,[15],44%
same,clearance,[16],49.2 mL/min/kg
same,Activity,[17],Non-Toxic
same,AUC at 24 h,[18],676 ng·h/mL
same,INH,Cytochrome P450 3A4,> 10 µM
same,Cmax,[19],253 ng/mL
same,half-life,[20],2.73 h
same,clearance,[21],36.6 mL/min/kg
same,IC50,[22],> 100 µM
same,half-life,[23],5.03 h
